Experimental data reported in patent publication US11833156B2, “Heterocyclic compounds as pad inhibitors” (JUBILANT EPIPAD LLC, priority 2017, dated 2023).
Counter-ions that a name gives are not always drawn.

target: PAD4 enzyme (Homo sapiens (Human), UniProt Q9UM07); assay: Ammonia Release Biochemical Assay (citrullination detected via ammonia release); conditions: PAD4 120 nM, substrate BAEE, 60-min preincubation, read-out: NH3 release
Method: Ammonia Release Biochemical Assay
Citrullination assay was detected via ammonia release. PAD4 enzyme was diluted to 120 nM in assay buffer (100 mM HEPES, 50 mM NaCl, 2 mM DDT, 0.6 mg/mL BSA, pH 7.4) added to wells containing various concentration of compound or DMSO vehicle (1% final) in black 384 well plate. Following a 60-min preincubation at room temperature, the reaction was initiated by the addition of substrate (1.5 mM BAEE in 200 mM HEPES, 50 mM NaCl, 350 uM CaCl2, 2 mM, pH 7.4). The reaction was stopped after 60 min by addition of stop/detection buffer containing 50 mM EDTA, 2.6 mM of o-phthaladehyde and 2.6 mM DTT. Assay was incubated at room temperature for 90 min before measuring fluorescence's (λex 405/λem 460 nm) on Tecan reader. IC50 was calculated using XL-fit software model 205. (Ref: Nat Chem Biol. 2015 March; 11(3):189-91).

PAD4 enzyme, sequence (Q9UM07 whole entry): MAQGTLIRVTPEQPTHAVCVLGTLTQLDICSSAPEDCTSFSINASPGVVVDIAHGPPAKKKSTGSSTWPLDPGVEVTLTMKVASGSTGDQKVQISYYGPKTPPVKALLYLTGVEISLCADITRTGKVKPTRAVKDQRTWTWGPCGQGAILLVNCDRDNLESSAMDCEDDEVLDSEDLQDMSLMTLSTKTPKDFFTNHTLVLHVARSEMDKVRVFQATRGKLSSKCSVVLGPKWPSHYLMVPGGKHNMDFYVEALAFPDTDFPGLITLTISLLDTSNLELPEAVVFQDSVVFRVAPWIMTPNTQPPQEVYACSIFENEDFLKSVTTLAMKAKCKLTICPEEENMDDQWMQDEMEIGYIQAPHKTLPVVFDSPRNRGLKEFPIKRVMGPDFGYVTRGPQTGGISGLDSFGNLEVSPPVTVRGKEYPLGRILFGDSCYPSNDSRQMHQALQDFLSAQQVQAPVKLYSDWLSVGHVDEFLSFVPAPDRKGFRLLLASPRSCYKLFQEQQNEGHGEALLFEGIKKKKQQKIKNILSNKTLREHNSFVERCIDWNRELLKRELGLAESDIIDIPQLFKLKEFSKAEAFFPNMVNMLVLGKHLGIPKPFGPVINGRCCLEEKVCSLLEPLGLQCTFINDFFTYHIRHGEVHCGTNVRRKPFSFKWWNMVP

Row | SMILES | IC50
1 | N[C@@H]1CCCN(C(=O)c2cc3c4c(c2)nc(-c2cc5ccccc5n2Cc2ccc(CO)cc2)n4CCO3)C1 [Example 37, (R)-(3-aminopiperidin-1-yl)(2-(1-(4-(hydroxymethyl)benzyl)-1H-indol-2-yl)-3,4-dihydro-5-oxa-1,2a-diazaacenaphthylen-7-yl)methanone trifluoroacetic acid salt] | ≤ 1000 nM
2 | N[C@@H]1CCCN(C(=O)c2cc3c4c(c2)nc(-c2cc5ccc(F)cc5n2Cc2ccc(F)cc2)n4CCO3)C1 [Example 49, (R)-(3-aminopiperidin-1-yl)(2-(6-fluoro-1-(4-fluorobenzyl)-1H-indol-2-yl)-3,4-dihydro-5-oxa-1,2a-diazaacenaphthylen-7-yl)methanone] | ≤ 1000 nM
3 | COCCn1c(-c2nc3cc(C(=O)N4CCC[C@@H](N)C4)cc4c3n2CCO4)cc2ccc(F)cc21 [Example 52] | 1000 to 10000 nM
4 | N[C@@H]1CCCN(C(=O)c2cc3c4c(c2)nc(-c2cc5ccccc5n2Cc2cccnn2)n4CCO3)C1 [Example 30, (R)-(3-aminopiperidin-1-yl)(2-(1-(pyridazin-3-ylmethyl)-1H-indol-2-yl)-3,4-dihydro-5-oxa-1,2a-diazaacenaphthylen-7-yl)methanone] | 1000 to 10000 nM
5 | N[C@@H]1CCCN(C(=O)c2cc3c4c(c2)nc(-c2cc5ccccc5n2CC(=O)O)n4CCO3)C1 [Example 42, (R)-2-(2-(7-(3-aminopiperidine-1-carbonyl)-3,4-dihydro-5-ox 1,2a-diazaacenaphthylen-2-yl)-1H-indol-1-yl)acetic acid] | ≥ 10000 nM
6 | N[C@@H]1CCCN(C(=O)c2cc3c4c(c2)nc(-c2cc5ccccc5n2CC2CC2)n4CCN3S(=O)(=O)C2CC2)C1 [Example 82, (R)-(3-aminopiperidin-1-yl)(2-(1-(cyclopropylmethyl)-1H-indol-2-yl)-6-(cyclopropylsulfonyl)-5,6-dihydro-4H-imidazo[1,5,4-de]quinoxalin-8-yl)methanone] | 1000 to 10000 nM
7 | N[C@@H]1CCCN(C(=O)c2cc3c4c(c2)nc(-c2cc5cccc(Cl)c5n2Cc2ncccc2F)n4CCO3)C1 [Example 34, (R)-(3-aminopiperidin-1-yl)(2-(7-chloro-1-((3-fluoropyridin-2-yl)methyl)-1H-indol-2-yl)-3,4-dihydro-5-oxa-1,2a-diazaacenaphthylen-7-yl)methanone] | ≤ 1000 nM
8 | COCCn1c(-c2nc3cc(C(=O)N4CCC[C@@H](N)C4)cc4c3n2CCO4)cc2ccc(OC)cc21 [Example 21, (R)-(3-aminopiperidin-1-yl)(2-(6-methoxy-1-(2-methoxyethyl)-1H-indol-2-yl)-3,4-dihydro-5-oxa-1,2a-diazaacenaphthylen-7-yl)methanone] | ≤ 1000 nM
9 | COc1ccc(Cn2c(-c3nc4cc(C(=O)N5CCC[C@@H](N)C5)cc5c4n3CCO5)cc3cc(F)ccc32)cc1 [Example 46, (R)-(3-aminopiperidin-1-yl)(2-(5-fluoro-1-(4-methoxybenzyl)-1H-indol-2-yl)-3,4-dihydro-5-oxa-1,2a-diazaacenaphthylen-7-yl)methanone] | ≤ 1000 nM
10 | CN(C)C/C=C/C(=O)N[C@@H]1CCCN(C(=O)c2cc3c4c(c2)nc(-c2cc5ccccc5n2CC2CC2)n4CCO3)C1 [Example 38, (R,E)-N-(1-(2-(1-(cyclopropylmethyl)-1H-indol-2-yl)-3,4-dihydro-5-oxa-1,2a-diazaacenaphthylene-7-carbonyl)piperidin-3-yl)-4-(dimethylamino)but-2-enamide trifluoroacetic acid salt] | ≥ 10000 nM
11 | N[C@@H]1CCCN(C(=O)c2cc3c4c(c2)nc(-c2cc5ccccc5n2Cc2cnccn2)n4CCO3)C1 [Example 25, (R)-(3-aminopiperidin-1-yl)(2-(1-(pyrazin-2-ylmethyl)-1H-indol-2-yl)-3,4-dihydro-5-oxa-1,2a-diazaacenaphthylen-7-yl)methanone] | ≤ 1000 nM
12 | N[C@@H]1CCCN(C(=O)c2cc3c4c(c2)nc(-c2cc5ccccc5n2Cc2ncccc2F)n4CCO3)C1 [Example 26, (R)-(3-aminopiperidin-1-yl)(2-(1-((3-fluoropyridin-2-yl)methyl)-1H-indol-2-yl)-3,4-dihydro-5-oxa-1,2a-diazaacenaphthylen-7-yl)methanone] | ≤ 1000 nM
13 | COCCn1c(-c2nc3cc(C(=O)N4CCC[C@@H](N)C4)cc4c3n2CCO4)cc2cc(F)ccc21 [Example 48, (R)-(3-aminopiperidin-1-yl)(2-(5-fluoro-1-(2-methoxyethyl)-1H-indol-2-yl)-3,4-dihydro-5-oxa-1,2a-diazaacenaphthylen-7-yl)methanone] | ≤ 1000 nM

Continued, values first:

Row | IC50 | SMILES
14 | ≤ 1000 nM | CN1CCn2c(-c3cc4cc(F)ccc4n3CC3CC3)nc3cc(C(=O)N4CCC[C@@H](N)C4)cc1c32 [Example 75, (R)-(3-aminopiperidin-1-yl)(2-(1-(cyclopropylmethyl)-5-fluoro-1H-indol-2-yl)-6-methyl-5,6-dihydro-4H-imidazo[1,5,4-de]quinoxalin-8-yl)methanone]
15 | ≥ 10000 nM | N[C@@H]1CCCN(C(=O)c2cc3c4c(c2)nc(-c2cc5ccccc5n2CC2CC2)n4CCN3S(=O)(=O)c2ccc(Cl)cc2)C1 [Example 81, (R)-(3-aminopiperidin-1-yl)(6-((4-chlorophenyl)sulfonyl)-2-(1-(cyclopropylmethyl)-1H-indol-2-yl)-5,6-dihydro-4H-imidazo[1,5,4-de]quinoxalin-8-yl)methanone]
16 | 1000 to 10000 nM | N[C@@H]1CCCN(C(=O)c2cc3c4c(c2)nc(-c2cc5ccccc5n2CC2CCOCC2)n4CCO3)C1 [Example 40, (R)-(3-aminopiperidin-1-yl)(2-(1-((tetrahydro-2H-pyran-4-yl)methyl)-1H-indol-2-yl)-3,4-dihydro-5-oxa-1,2a-diazaacenaphthylen-7-yl)methanone]
17 | ≤ 1000 nM | COCCn1c(-c2nc3cc(C(=O)N4CCC[C@@H](N)C4)cc4c3n2CCO4)cc2cccc(Cl)c21 [Example 36, (R)-(3-aminopiperidin-1-yl)(2-(7-chloro-1-(2-methoxyethyl)-1H-indol-2-yl)-3,4-dihydro-5-oxa-1,2a-diazaacenaphthylen-7-yl)methanone]
18 | ≤ 1000 nM | CC(C)Cn1c(-c2nc3cc(C(=O)N4CCC[C@@H](N)C4)cc4c3n2CCO4)cc2ccccc21 [Example 31, (R)-(3-aminopiperidin-1-yl)(2-(1-isobutyl-1H-indol-2-yl)-3,4-dihydro-5-oxa-1,2a-diazaacenaphthylen-7-yl)methanone]
19 | ≤ 1000 nM | COCCn1c(-c2nc3cc(C(=O)N4CCC[C@@H](N)C4)cc4c3n2CCO4)cc2ccccc21 [Example 20, (R)-(3-aminopiperidin-1-yl)(2-(1-(2-methoxyethyl)-1H-indol-2-yl)-3,4-dihydro-5-oxa-1,2a-diazaacenaphthylen-7-yl)methanone]
20 | ≤ 1000 nM | N[C@@H]1CCCN(C(=O)c2cc3c4c(c2)nc(-c2cc5ccc(F)c(Cl)c5n2CC2CC2)n4CCO3)C1 [Example 87, (R)-(3-aminopiperidin-1-yl)(2-(7-chloro-1-(cyclopropylmethyl)-6-fluoro-1H-indol-2-yl)-3,4-dihydro-5-oxa-1,2a-diazaacenaphthylen-7-yl)methanone]
21 | ≤ 1000 nM | COc1ccc2cc(-c3nc4cc(C(=O)N5CCC[C@@H](N)C5)cc5c4n3CCN5C)n(CC3CC3)c2c1 [Example 74, (R)-(3-aminopiperidin-1-yl)(2-(1-(cyclopropylmethyl)-6-methoxy-1H-indol-2-yl)-6-methyl-5,6-dihydro-4H-imidazo[1,5,4-de]quinoxalin-8-yl)methanone]
22 | 1000 to 10000 nM | N[C@@H]1CCCN(C(=O)c2cc3c4c(c2)nc(-c2cc5c(F)cccc5n2CC2CC2)n4CCN3)C1 [Example 80, (R)-(3-aminopiperidin-1-yl)(2-(1-(cyclopropylmethyl)-4-fluoro-1H-indol-2-yl)-5,6-dihydro-4H-imidazo[1,5,4-de]quinoxalin-8-yl)methanone]
23 | 1000 to 10000 nM | CCOCCS(=O)(=O)N1CCn2c(-c3cc4ccccc4n3CC3CC3)nc3cc(C(=O)N4CCC[C@@H](N)C4)cc1c32 [Example 83, (R)-(3-aminopiperidin-1-yl)(2-(1-(cyclopropylmethyl)-1H-indol-2-yl)-6-((2-ethoxyethyl)sulfonyl)-5,6-dihydro-4H-imidazo[1,5,4-de]quinoxalin-8-yl)methanone]
24 | ≤ 1000 nM | N[C@@H]1CCCN(C(=S)c2cc3c4c(c2)nc(-c2cc5ccccc5n2CC2CC2)n4CCN3)C1 [Example 86, (R)-(3-aminopiperidin-1-yl)(2-(1-(cyclopropylmethyl)-1H-indol-2-yl)-5,6-dihydro-4H-imidazo [1,5,4-de]quinoxalin-8-yl)methanethione]
25 | ≤ 1000 nM | COc1ccc2c(c1)cc(-c1nc3cc(C(=O)N4CCC[C@@H](N)C4)cc4c3n1CCO4)n2CC1CC1 [Example 60, (R)-(3-aminopiperidin-1-yl)(2-(1-(cyclopropylmethyl)-5-methoxy-1H-indol-2-yl)-3,4-dihydro-5-oxa-1,2a-diazaacenaphthylen-7-yl)methanone]
26 | 1000 to 10000 nM | CCn1c(-c2nc3cc(C(=O)N4CCC[C@@H](N)C4)cc4c3n2CCO4)cc2ccccc21 [Example 3, (R)-(3-aminopiperidin-1-yl)(2-(1-ethyl-1H-indol-2-yl)-3,4-dihydro-5-oxa-1,2a-diazaacenaphthylen-7-yl)methanone]
27 | ≤ 1000 nM | Cc1cccc2cc(-c3nc4cc(C(=O)N5CCC[C@@H](N)C5)cc5c4n3CCN5)n(CC3CC3)c12 [Example 84, (R)-(3-aminopiperidin-1-yl)(2-(1-(cyclopropylmethyl)-7-methyl-1H-indol-2-yl)-5,6-dihydro-4H-imidazo [1,5,4-de]quinoxalin-8-yl)methanone]
